Results published in paper PMC9964319, “Half-Sandwich Rhodium Complexes with Releasable N-Donor Monodentate Ligands: Solution Chemical Properties and the Possibility for Acidosis Activation” (Pharmaceutics, 2023).
Where two headings read alike, the source gives them in different places.

Legend:
[1] = Formation constants of mixed-ligand half-sandwich complexes (UV-vis and 1H NMR); type: physicochemical; details: for Formation constant logK of mixed-ligand complex: aqua complex + monodentate ligand, I = 0.10 M (KCl), t = 25.0 °C, UV-vis and 1H NMR; for formation of the mixed-ligand complex: under the applied conditions, 1H NMR, limit of detection 5%
Experimental: NMR spectroscopic studies were carried out on a Bruker Avance III HD Ascend 500 Plus instrument. For the aqueous samples, ^1H NMR spectra were recorded with the WATERGATE water suppression pulse scheme using DSS internal standard. The highest peak of DSS was 0.00 ppm. The measurement was very similar to the UV-vis measurement since the complex–to–monodentate ligand ratio was also between 0–10 equivalents; the spectra were recorded after the given waiting time. […] This technique was useful in those cases where no spectral change was visible during the UV-vis titrations.
In both measurement methods, the formation constant (K) was obtained using the computer program PSEQUAD [38].
It is worthwhile to mention that the liberation of the bidentate ligand was not detected even at higher monodentate ligand excess (~10), which means that the disruption of the bond between the bidentate ligand and the metal center is not feasible under these conditions. The calculated formation constants are compared in Figure 5 and are collected in Table S2. The formation of the mixed-ligand complexes was not detected in three cases under the applied conditions, namely [Ru(p-cym)(en)(mim)]^2+, [Ru(p-cym)(phen)(mim)]^2+, and [Ru(p-cym)(en)(Py)]^2+. For these complexes, only a higher limit of the formation constant could be given, assuming that a maximum of 5% of the complex would form (limit of detection) under the conditions used for ^1H NMR spectroscopy. Based on Figure 5, the following trends are observed in the formation constants: (i) [RhCp*(en)(H2O)]^2+ and [RhCp*(phen)(H2O)]^2+ have a stronger monodentate ligand-binding ability than the Ru(p-cym) analogs; (ii) the formation constants of the [Ru(p-cym)(8HQH-1)(N)]^+ complexes are similar or somewhat higher than those of the RhCp* analogs; (iii) a stability trend for the monodentate ligand: mim > bim > Py (iv) and the bidentate ligand: 8HQH-1 > phen ≥ en can be seen.

[2] = test system: E. coli 32313 (resistant); experiment: Antibacterial assay, MIC in 96-well plates at different pH; type: cell-based
Source text: (§1) The antibacterial effect was studied in two Gram-positive and in two Gram-negative strains. The Gram-positive S. aureus ATCC 25923 (ATCC, Manassas, VA, USA) is a methicillin-susceptible reference bacterial strain, while S. aureus 272123 is a clinical isolate and resistant to methicillin and ofloxacin (MRSA), which was given by Prof. Dr. Leonard Amaral (Institute of Hygiene and Tropical Medicine, Lisbon, Portugal). The Gram-negative strains were E. coli ATCC 25922 (ATCC, Manassas, VA, USA), which is sensitive to antibiotics, and E. coli 32313 (provided by the Institute of Clinical Microbiology, University of Szeged, Hungary), which is resistant to different antibiotics (trimethoprim/sulfamethoxazole, gentamicin, ciprofloxacin, and norfloxacin).
(§2) The minimum inhibitory concentrations (MICs) of the compounds were determined in 96-well plates based on the Clinical and Laboratory Standard Institute guidelines. The compounds were diluted in 100 μL of Mueller Hinton broth. Then, an overnight bacterial culture diluted 10,000 times in 100 μL of medium was added to each well, with the exception of the medium control wells. For each strain and each tested compound, four pH values were set (5, 6, 7, and 8). Each sample was triplicated.

[3] = test system: E. coli ATCC 25922 (sensitive); experiment: as above; type: cell-based
Source text: as §1, §2

[4] = test system: S. aureus 272123 (MRSA); experiment: as above; type: cell-based
Source text: as §1, §2

[5] = test system: S. aureus ATCC 25923 (methicillin-susceptible); experiment: as above; type: cell-based
Source text: as §1, §2

[6] = test system: Colo205 human colon adenocarcinoma cell line (doxorubicin-sensitive); experiment: MTT assay, cytotoxicity at pH 6 and 7; type: cell-based
Experimental: (§3) All cell culture reagents were obtained from Sigma-Aldrich (Merck KGaA, Darmstadt, Germany) and plasticware from Sarstedt (Nümbrecht, Germany). Human colonic adenocarcinoma cell lines Colo205 (catalog number: ATCC-CCL-222) and its doxorubicin-resistant counterpart Colo320 (catalog number: ATCC-CCL-220.1) were purchased from LGC Promochem (Teddington, UK). The cells were cultured in RPMI 1640 medium supplemented with 10% heat-inactivated fetal bovine serum, 2 mM L-glutamine, 1 mM sodium pyruvate, and 100 mM HEPES buffer, adjusting the pH to 6.0 or 7.0. The cells were incubated at 37 °C in a 5% CO2–95% air atmosphere. The semiadherent human colon cancer cells were detached with Trypsin-Versene solution for 5 min at 37 °C.
(§4) The solutions were freshly prepared prior to measurements (see Section 2.1). […] Firstly, these samples were diluted in complete culture medium; then, two-fold serial dilutions of the compounds were prepared in 100 μL of RPMI 1640, horizontally. The semiadherent colonic adenocarcinoma cells were treated with Trypsin-Versene solution. They were adjusted to a density of 1 × 10^4 cells in 100 μL of RPMI 1640 medium and were added to each well, with the exception of the medium control wells. The final volume of the wells containing compounds and cells was 200 μL. Samples were triplicated. The pH of the medium was adjusted to 6.0 or 7.0.
(§5) The culture plates were incubated at 37 °C for 72 h; at the end of the incubation period, 20 μL of MTT solution (from a stock solution of 5 mg/mL) was added to each well. After incubation at 37 °C for 4 h, 100 μL of SDS solution (10% in 0.01 M HCI) was added to each well, and the plates were further incubated at 37 °C overnight. Cell growth was determined by measuring the optical density (OD) at 540/630 nm with a Multiscan EX ELISA reader (Thermo Labsystems, Cheshire, WA, USA). […] Curves were fitted using GraphPad Prism software (2022, version 9.4.1, Graphpad Software (LLC) d.b.a Dotmatics, San Diego, CA, USA) using the sigmoidal dose–response model (comparing variable and fixed slopes).
(§6) The pH-dependent solution speciation of the selected mixed-ligand complexes is an important feature in the hypothesized mechanism of action, and the modeling of acidosis is necessary for the in vitro anticancer assays. In order to find out the cytotoxicity difference based on the pH of the medium, cytotoxic activity was determined at pH 6 and 7 by MTT assay in two human colon adenocarcinoma cell lines (doxorubicin-sensitive Colo205 and doxorubicin-resistant Colo320). […] The mixed-ligand complexes were prepared prior to the measurements, as was already described in Section 2.1. With this method, the effect of the different counter ions could be avoided, and a more adequate comparison of the mixed-ligand complexes could be conducted.

[7] = test system: Colo320 human colon adenocarcinoma cell line (doxorubicin-resistant); experiment: MTT assay, cytotoxicity at pH 6 and 7; type: cell-based
Experimental: as §3, §4, §5, §6

[8] = E. coli resistant, pH 5, after one day, read-out: MIC
[9] = E. coli resistant, pH 8, after one day, read-out: MIC
[10] = E. coli sensitive, pH 5, after one day, read-out: MIC
[11] = E. coli sensitive, pH 8, after one day, read-out: MIC
[12] = pH 5, after one day, read-out: MIC
[13] = pH 8, after one day, read-out: MIC
[14] = S. aureus sensitive, pH 8, after one day, read-out: MIC

Cc1ccc(C(C)C)cc1.NCCN.[Ru+2].c1ccc2[nH]cnc2c1 [[RuCym(en)(H2O)]2+ + bim]
Formation constant logK of mixed-ligand complex [1]: 3.5 ± 0.1

Cc1c(C)c(C)[c-](C)c1C.[Rh+3].c1ccc2[nH]cnc2c1.c1cnc2c(c1)ccc1cccnc12 [[RhCp*(phen)(bim)]^2+]
Formation constant logK of mixed-ligand complex [1]: 4.9 ± 0.2

Cc1ccc(C(C)C)cc1.Cn1ccnc1.[Ru+2].c1cnc2c(c1)ccc1cccnc12 [[Ru(p-cym)(phen)(mim)]^2+]
formation of the mixed-ligand complex [1]: not detected

Cc1ccc(C(C)C)cc1.NCCN.[Ru+2].c1ccncc1 [[Ru(p-cym)(en)(Py)]^2+]
Formation constant logK of mixed-ligand complex [1]: < 1.5 | formation of the mixed-ligand complex [1]: not detected

Cc1c(C)c(C)[c-](C)c1C.[Rh+3].c1ccncc1.c1cnc2c(c1)ccc1cccnc12 [[RhCp*(phen)(Py)]^2+]
Formation constant logK of mixed-ligand complex [1]: 4.1 ± 0.1 | MIC [2, 8]: > 100 µM | MIC ([2]; E. coli resistant, pH 6, after one day, listed as [RhCp*(phen)Cl]Cl +Py, read-out: MIC): >100 µM | MIC ([2]; E. coli resistant, pH 7, after one day, listed as [RhCp*(phen)Cl]Cl +Py, read-out: MIC): >100 µM | MIC [2, 9]: > 100 µM | MIC [3, 10]: > 100 µM | MIC ([3]; E. coli sensitive, pH 6, after one day, listed as [RhCp*(phen)Cl]Cl +Py, read-out: MIC): >100 µM | MIC ([3]; E. coli sensitive, pH 7, after one day, listed as [RhCp*(phen)Cl]Cl +Py, read-out: MIC): >100 µM | MIC [3, 11]: > 100 µM | MIC [4, 12]: > 100 µM | MIC ([4]; pH 6, after one day, listed as [RhCp*(phen)Cl]Cl +Py, read-out: MIC): >100 µM | MIC ([4]; pH 7, after one day, listed as [RhCp*(phen)Cl]Cl +Py, read-out: MIC): >100 µM | MIC [4, 13]: > 100 µM | MIC ([5]; S. aureus sensitive, pH 7, after one day, listed as [RhCp*(phen)Cl]Cl +Py, read-out: MIC): >100 µM | MIC [5, 14]: > 100 µM

Cc1c(C)c(C)[c-](C)c1C.NCCN.[Rh+3].c1ccc2[nH]cnc2c1 [[RhCp*(en)(H2O)]2+ + bim]
Formation constant logK of mixed-ligand complex [1]: 3.3 ± 0.2

Cc1ccc(C(C)C)cc1.Cn1ccnc1.NCCN.[Ru+2] [[Ru(p-cym)(en)(mim)]^2+]
formation of the mixed-ligand complex [1]: not detected

Cc1ccc(C(C)C)cc1.[Ru+][O]c1cccc2cccnc12.c1ccncc1 [[RuCym(8HQH-1)(H2O)]+ + Py]
Formation constant logK of mixed-ligand complex [1]: 1.6 ± 0.2

Cc1c(C)c(C)[c-](C)c1C.[Rh+2][O]c1cccc2cccnc12.c1ccc2[nH]cnc2c1 [[RhCp*(8HQH-1)(H2O)]+ + bim]
Formation constant logK of mixed-ligand complex [1]: 3.4 ± 0.1

c1ccncc1 [Py, pyridine, reference compound]
IC50 ([6]; Homo sapiens, COLO 205, 72 h, pH 6): > 100 µM | IC50 ([6]; Homo sapiens, COLO 205, 72 h, pH 7): > 100 µM | IC50 ([7]; Homo sapiens, COLO 320, 72 h, pH 6): > 100 µM | IC50 ([7]; Homo sapiens, COLO 320, 72 h, pH 7): > 100 µM | MIC ([2]; Escherichia coli, 24 h, pH 5): > 100 µM | MIC ([2]; Escherichia coli, 24 h, pH 6): > 100 µM | MIC ([2]; Escherichia coli, 24 h, pH 7): > 100 µM | MIC ([2]; Escherichia coli, 24 h, pH 8): > 100 µM | MIC ([2]; Escherichia coli, read-out: MIC (no antibacterial effect)): > 100 µM | MIC ([3]; Escherichia coli, ATCC25922, 24 h, pH 5): > 100 µM | MIC ([3]; Escherichia coli, ATCC25922, 24 h, pH 6): > 100 µM | MIC ([3]; Escherichia coli, ATCC25922, 24 h, pH 7): > 100 µM | MIC ([3]; Escherichia coli, ATCC25922, 24 h, pH 8): > 100 µM | MIC ([3]; Escherichia coli, ATCC25922, read-out: MIC (no antibacterial effect)): > 100 µM | MIC ([4]; Staphylococcus aureus, 24 h, pH 5): > 100 µM | MIC ([4]; Staphylococcus aureus, 24 h, pH 6): > 100 µM | MIC ([4]; Staphylococcus aureus, 24 h, pH 7): > 100 µM | MIC ([4]; Staphylococcus aureus, 24 h, pH 8): > 100 µM | MIC ([4]; Staphylococcus aureus, read-out: MIC (no antibacterial effect)): > 100 µM | MIC ([5]; Staphylococcus aureus, ATCC25923, 24 h, pH 7): > 100 µM | MIC ([5]; Staphylococcus aureus, ATCC25923, 24 h, pH 8): > 100 µM | MIC ([5]; Staphylococcus aureus, ATCC25923, read-out: MIC (no antibacterial effect)): > 100 µM

Cc1ccc(C(C)C)cc1.[Ru+][O]c1cccc2cccnc12.c1ccc2[nH]cnc2c1 [[RuCym(8HQH-1)(H2O)]+ + bim]
Formation constant logK of mixed-ligand complex [1]: 2.9 ± 0.1

Cc1c(C)c(C)[c-](C)c1C.[Cl][Rh+][O]c1cccc2cccnc12 [[RhCp*(8HQH−1)Cl]]
IC50 ([6]; Colo205, pH 6, 72 h incubation, read-out: IC50): 8.1 ± 0.5 µM | IC50 ([6]; Colo205, pH 7, 72 h incubation, read-out: IC50): 8.8 ± 0.4 µM | IC50 ([7]; Colo320, pH 6, 72 h incubation, read-out: IC50): 6.1 ± 0.2 µM | IC50 ([7]; Colo320, pH 7, 72 h incubation, read-out: IC50): 3.3 ± 0.1 µM | MIC [2, 8]: > 100 µM | MIC ([2]; E. coli resistant, pH 6, after one day, read-out: MIC): >100 µM | MIC ([2]; E. coli resistant, pH 7, after one day, read-out: MIC): >100 µM | MIC [2, 9]: > 100 µM | MIC [3, 10]: > 100 µM | MIC ([3]; E. coli sensitive, pH 6, after one day, read-out: MIC): >100 µM | MIC ([3]; E. coli sensitive, pH 7, after one day, read-out: MIC): >100 µM | MIC [3, 11]: > 100 µM | MIC [4, 12]: 50 µM | MIC ([4]; pH 6, after one day, read-out: MIC): 12.5 µM | MIC ([4]; pH 7, after one day, read-out: MIC): 12.5 µM | MIC [4, 13]: 12.5 µM | MIC ([5]; S. aureus sensitive, pH 7, after one day, read-out: MIC): 12.5 µM | MIC [5, 14]: 12.5 µM
